Measurements from patent US8501995B2, “β-phenylethylidenehydrazine derivatives” (The Governors of the University of Alberta, priority 2009, dated 2013).
Where two headings read alike, the source gives them in different places.

Assays:
[1] = target: T1, MAO-A (Rattus norvegicus, UniProt P21396); assay: MAO-A activity ex vivo in brain tissue of drug-treated rats; conditions: for effect on MAO-A activity ex vivo: time points tested 3, 6, 12 hours, i.p., equimolar doses (PEH 30 mg/kg, 7p 47 mg/kg, 8p 38.5 mg/kg); for MAO-A activity ex vivo / MAO-A inhibition ex vivo: 8p 38.5 mg/kg i.p.
T1 construct: from tissue; host or cells: rat (male Sprague-Dawley) whole brain homogenate
T1 sequence (P21396 1-526): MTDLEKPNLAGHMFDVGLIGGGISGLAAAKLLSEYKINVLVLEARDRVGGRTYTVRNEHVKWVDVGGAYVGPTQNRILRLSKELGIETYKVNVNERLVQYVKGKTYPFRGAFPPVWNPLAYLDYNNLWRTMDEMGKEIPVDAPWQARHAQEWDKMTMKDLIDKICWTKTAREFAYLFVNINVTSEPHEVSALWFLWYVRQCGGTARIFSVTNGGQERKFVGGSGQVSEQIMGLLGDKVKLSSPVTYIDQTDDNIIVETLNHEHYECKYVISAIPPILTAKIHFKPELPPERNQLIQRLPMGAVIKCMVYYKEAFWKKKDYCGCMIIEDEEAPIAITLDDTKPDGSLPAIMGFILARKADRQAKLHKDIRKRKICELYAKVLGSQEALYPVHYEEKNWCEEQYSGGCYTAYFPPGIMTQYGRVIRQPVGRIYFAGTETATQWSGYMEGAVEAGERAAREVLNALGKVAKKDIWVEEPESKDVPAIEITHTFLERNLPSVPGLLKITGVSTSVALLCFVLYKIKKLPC
Description: (§1) Male Sprague-Dawley rats (approximately 300 g) were pair-housed in polycarbonate cages with free access to food (Purina Rat Chow) and water, and were maintained on a 12-hour light-dark cycle (lights on at 0800). All animal procedures were approved by the University of Alberta Biosciences Animal Policy and Welfare Committee, and were carried out in accordance with the guidelines of the Canadian Council on Animal Care.
(§2) In the ex vivo studies, animals were injected intraperitoneally with equimolar amounts of PEH (30 mg/kg), 7p (47 mg/kg) or 8p (38.5 mg/kg) or vehicle (corn oil) and were killed by decapitation 3, 6 or 12 hours following drug administration. Brains were rapidly removed and flash-frozen in 2-methylbutane on solid carbon dioxide, and were stored at −80° C. Subsequently, partially-thawed brains were homogenized in 5 volumes of ice-cold distilled water, and stored in aliquots at -80° C. for use in subsequent analyses (GABA-T, MAO-A, MAO-B, and brain levels of amino acids) after addition to the appropriate buffer medium.
(§3) Monoamine oxidase activity was determined using a modified protocol described by Lyles and Callingham.^51 In the in vitro studies, the drugs were pre-incubated with control rat brain homogenate prior to conducting the assay. Briefly, tissue homogenate was diluted in KH2PO4 (0.2M), and an aliquot (50 μl) was incubated with the appropriate radiolabelled substrates (^14C-labelled 5-hydroxytryptamine and β-phenylethylamine were used as substrates for MAO-A and -B respectively). The reaction products were extracted by a mixture of ethyl acetate and toluene (1:1 v/v), and a portion of the top layer was added to a vial containing scintillation fluid for radioactivity measurement. Radioactivity (dpm) was counted using a Beckman LS 7500 liquid scintillation spectrometer.

[2] = target: T1, MAO-A; assay: MAO-A inhibition in vitro in control rat brain homogenate (14C-5-hydroxytryptamine substrate); type: biochemical
Description: as §3

[3] = target: T2, GABA-T (Rattus norvegicus, UniProt P50554); assay: GABA-T inhibition in vitro, colorimetric screen in control rat brain homogenate; type: biochemical
T2 construct: Brain homogenate from control rats was pre-incubated with the drug of interest; from tissue; host or cells: rat (male Sprague-Dawley) whole brain homogenate
Description: (§4) A modification of the colorimetric method of Sethi^49 was used in the initial in vitro screen. Brain homogenate from control rats was pre-incubated with the drug of interest and an incubation buffer before conducting the assay. In the ex vivo study of homogenates from brains of rats treated with the analogs, GABA-T activity was measured using the radiochemical procedure of Sterri and Fonnum.^20 Briefly, homogenates were incubated with radiolabelled GABA in a buffer containing pyridoxal phosphate and the resultant products were isolated using a liquid anion exchanger (tri-n-octylamine). Radioactivity (dpm) was counted using a Beckman LS 7500 liquid scintillation spectrometer.

[4] = target: T3, MAO-B (Rattus norvegicus, UniProt P19643); assay: MAO-B activity ex vivo in brain tissue of drug-treated rats; conditions: i.p.; for effect on MAO-B activity ex vivo: time points tested 3, 6, 12 hours, equimolar doses (PEH 30 mg/kg, 7p 47 mg/kg, 8p 38.5 mg/kg); for MAO-B activity ex vivo: 7p 47 mg/kg, 8p 38.5 mg/kg
T3 construct: the drugs were pre-incubated with control rat brain homogenate prior to conducting the assay; from tissue; host or cells: rat (male Sprague-Dawley) whole brain homogenate
T3 sequence (P19643 1-520): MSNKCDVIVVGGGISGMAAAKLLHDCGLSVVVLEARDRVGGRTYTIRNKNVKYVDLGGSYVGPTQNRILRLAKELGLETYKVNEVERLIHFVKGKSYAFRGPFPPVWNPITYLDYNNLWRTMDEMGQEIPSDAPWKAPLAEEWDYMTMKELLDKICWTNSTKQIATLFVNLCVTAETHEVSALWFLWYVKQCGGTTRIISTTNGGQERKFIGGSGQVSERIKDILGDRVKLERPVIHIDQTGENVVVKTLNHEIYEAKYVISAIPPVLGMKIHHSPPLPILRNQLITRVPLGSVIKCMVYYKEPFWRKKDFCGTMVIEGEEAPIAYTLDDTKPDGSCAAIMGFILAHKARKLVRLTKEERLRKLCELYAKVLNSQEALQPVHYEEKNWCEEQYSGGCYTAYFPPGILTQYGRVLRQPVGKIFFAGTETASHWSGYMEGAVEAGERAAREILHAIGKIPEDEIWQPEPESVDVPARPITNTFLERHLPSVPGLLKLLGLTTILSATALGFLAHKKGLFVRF
Description: as §1, §2, §3

[5] = target: T2, GABA-T; assay: GABA-T activity ex vivo in brain homogenates of drug-treated rats (radiochemical); conditions: i.p., equimolar doses (PEH 30 mg/kg, 7p 47 mg/kg, 8p 38.5 mg/kg)
Description: as §1, §2, §4

[6] = target: T3, MAO-B; assay: MAO-B inhibition in vitro in control rat brain homogenate (14C-β-phenylethylamine substrate); type: biochemical
Description: as §3

[7] = system: brain levels of amino acids (GABA, glutamate, alanine and glycine); type: in vivo; conditions: rat whole brain; for effect on brain GABA levels / effect on brain alanine levels / effect on brain glutamate levels / effect on brain glycine levels: 3, 6, 12 hours, i.p., equimolar doses (PEH 30 mg/kg, 7p 47 mg/kg, 8p 38.5 mg/kg)
Description: as §1, §2
Amino acid levels (GABA, glutamate, alanine and glycine) were determined using a modified procedure previously described by Grant and colleagues^52 for the quantification of amino acids using HPLC combined with fluorescence detection, following derivatization with fluoraldehyde reagent [o-phthaldialdehyde (OPA)] and isobutyryl-L-cysteine (IBLC). Briefly, a portion of the homogenate (100 μl) was added to ice-cold methanol (400 μl), re-homogenized and centrifuged (13,000 g, 4° C.). The supernatants were further diluted by a factor of 2 in ice-cold water, and transferred to HPLC vials. A portion of the supernatant (5 μl) was reacted with OPA/IBLC (5 μl) in the injection loop of a Waters Alliance 2690XE system for 1.5 minutes before injection onto the analytical column (Symmetry C18 5 μm (4.6×150 mm)), connected to a Symmetry C18 guard column, held at 30° C. A Waters 474 fluorescence detector was set to an excitation wavelength of 344 nm and an emission wavelength of 443 nm. Data were collected and analyzed using the Empower Pro software package (Waters).

[8] = rat brain homogenate, mean±SEM, n=4
[9] = 3 hours following injection, PEH 30 mg/kg i.p.
[10] = 3 hours following drug administration
[11] = 6 hours following drug administration
[12] = 6 hours following drug injection
[13] = 12 hours following drug injection

T2 sequence (P50554 28-500): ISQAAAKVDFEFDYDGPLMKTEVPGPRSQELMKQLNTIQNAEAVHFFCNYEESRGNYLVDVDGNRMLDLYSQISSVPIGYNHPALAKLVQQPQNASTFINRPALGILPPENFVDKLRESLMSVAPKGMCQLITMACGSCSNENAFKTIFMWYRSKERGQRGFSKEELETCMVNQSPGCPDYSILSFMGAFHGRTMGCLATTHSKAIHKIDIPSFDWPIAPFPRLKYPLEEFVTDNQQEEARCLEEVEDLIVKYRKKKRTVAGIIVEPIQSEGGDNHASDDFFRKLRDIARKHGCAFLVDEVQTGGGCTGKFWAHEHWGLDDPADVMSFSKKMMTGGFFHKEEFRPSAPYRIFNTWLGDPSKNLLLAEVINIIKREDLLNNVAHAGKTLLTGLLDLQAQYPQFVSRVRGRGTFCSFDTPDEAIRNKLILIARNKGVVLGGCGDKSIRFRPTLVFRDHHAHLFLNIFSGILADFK

Row | Compound | effect on MAO-A activity ex vivo [1] | inhibition of MAO-A in vitro [2, 8] | effect on MAO-B activity ex vivo [4] | GABA-T activity ex vivo ([5]; 3 hours post-injection) | GABA-T activity ex vivo ([5]; 6 hours post-injection) | GABA-T activity ex vivo ([5]; 12 hours post-injection) | inhibition of MAO-B in vitro [6, 8] | effect on brain GABA levels [7] | effect on brain alanine levels [7] | effect on brain glutamate levels [7] | effect on brain glycine levels [7] | inhibition of MAO-A in vitro ([2]; concentration of 10 μM) | MAO-B activity ex vivo [4, 12] | MAO-B activity ex vivo [4, 13] | inhibition of MAO-B in vitro ([6]; concentration of 10 μM) | other results
1 | NN=CCc1ccccc1 [PEH, β-Phenylethylidenehydrazine] | did not alter the activity of either MAO-A or -B | 26.7±3.1% | did not alter the activity of either MAO-A or -B | 66 % of control | 66 % of control | 70 % of control | 14.9±6.6% | increased brain GABA and alanine levels | increased brain GABA and alanine levels | did not significantly alter brain glutamate or glycine levels | did not significantly alter brain glutamate or glycine levels |  |  |  |  | inhibition at 10 µM [3]: ~50%; brain GABA level [7, 9]: 418 % of control; brain alanine level [7, 9]: 489 % of control
2 | C#CCNN=CCc1ccccc1 [8p, (E)- and (Z)-N-(2-Propynyl)-2-(phenyl)ethylidene]hydrazines] | weak, transient effect on MAO-A |  | significantly reducing MAO-B activity at all time points tested | 76 % of control | 77 % of control | not significantly different from control values |  | did not significantly alter the levels of GABA, alanine or glutamate at any time point tested | did not significantly alter the levels of GABA, alanine or glutamate at any time point tested | did not significantly alter the levels of GABA, alanine or glutamate at any time point tested | significantly increased glycine at 3 and 6 hours post-injection | neither 7p nor 8p caused any inhibition of MAO-A or -B | 24 % of control | 29 % of control | neither 7p nor 8p caused any inhibition of MAO-A or -B | MAO-A activity ex vivo [1, 10]: 78 % of control; MAO-A inhibition ex vivo [1, 10]: 22%; MAO-A activity ex vivo [1, 11]: 70 % of control; MAO-A inhibition ex vivo [1, 11]: 30%; brain glycine level ([7]; 6 hours post-injection, 8p 38.5 mg/kg i.p.): 216 % of control
3 | NNCCc1ccccc1 [PLZ, phenelzine, reference compound] |  | greater than 95% |  |  |  |  | greater than 95% |  |  |  |  |  |  |  |  | 
4 | C#CCN(CC#C)/N=C/Cc1ccccc1 [7p] | did not significantly alter MAO-A activity at any time point tested |  | significantly reducing MAO-B activity at all time points tested | 86 % of control | 86 % of control | not significantly different from control values |  | did not significantly alter the levels of GABA, alanine or glutamate at any time point tested | did not significantly alter the levels of GABA, alanine or glutamate at any time point tested | did not significantly alter the levels of GABA, alanine or glutamate at any time point tested | increased glycine at 3, 6 and 12 hours post-injection | neither 7p nor 8p caused any inhibition of MAO-A or -B | 58 % of control | 25 % of control | neither 7p nor 8p caused any inhibition of MAO-A or -B | brain glycine level ([7]; 12 hours post-injection, 7p 47 mg/kg i.p.): 248 % of control
